The SangsterLogP compilation

Details: not given
`c1ccc(COCc2ccccc2)cc1` showed a logP of 3.31.
Work on `CCOc1cccc(Cl)n1` yielded a logP of 2.55.
`COCC(O)Cn1cc([N+](=O)[O-])nn1` (stereo unspecified) showed a logP of -0.36.
For `O=C(CCn1ccnc1[N+](=O)[O-])NCCO`, the logP was -1.08.
Work on `CN(C)O` yielded a logP of -1.15.
Work on `CCOC(=O)CCCOc1ccc(Cl)cc1C` yielded a logP of 4.26.
Compound `Cc1c(Cl)ccc(OC(C)C(=O)Nc2ccccc2)c1Cl` (stereo unspecified) has a logP of 4.8.
In the case of `S=C(N/N=C/c1ccc[nH]1)Nc1ccccc1`, the logP is reported as 3.73.
Compound `CC(O)Cc1ccccc1` (stereo unspecified) has a logP of 1.97.
Work on `COC(=O)c1ccc(Cl)cc1` yielded a logP of 2.76.
`NC(=O)Nc1nc(-c2ccccc2)no1` showed a logP of 1.76.
`Oc1ccc(CCNCCCCCCNCCc2ccccc2)cc1O` showed a logP of 1.88.
Work on `CS(=O)(=O)CC#N` yielded a logP of -1.42.
`C=C(C)Cl` showed a logP of 2.
Work on `O=C(N/N=C/c1ccco1)Nc1ccccc1` yielded a logP of 2.52.
With `Cc1ccccc1CO` the logP was 1.58.
`CC(C(=O)O)c1ccc(N2C(=O)C3CC=CCC3C2=O)cc1` (stereo unspecified) showed a logP of 2.27.
Work on `CCOc1ccccc1OCC` yielded a logP of 2.42.
Work on `Clc1nc(-c2ccccc2)nc2ccccc12` yielded a logP of 4.47.
With `CNC1=C(N2CC2)C(=O)C(NC)=C(N2CC2)C1=O` the logP was 0.13.
In the case of `FC(F)(F)c1ccccc1Cl`, the logP is reported as 3.53.
Work on `Cn1ccc(=O)n(C)c1=O` yielded a logP of -0.54.
With `CSC(=S)Nc1ccc(Cl)c(Cl)c1` the logP was 4.23.
`Cc1[nH]oc(=O)c1/N=N/c1ccccc1Cl` gave a logP of 2.6.
Compound `Cc1ccc(C)[nH]1` has a logP of 1.47.
`c1cnc2nc[nH]c2c1` gave a logP of 0.3.
For `CCOC(=O)CC(=O)c1ccccc1`, the logP was 1.87.
Work on `CC(C(=O)O)c1ccc(N2CC3CCCCC3C2=O)cc1` (stereo unspecified) yielded a logP of 3.07.
With `CCC(C)OC(C)=O` (stereo unspecified) the logP was 1.72.
`c1ccc2c(c1)CCCC2` showed a logP of 3.49.
With `CCc1cccc(C)c1NC(=O)OC(C)C` the logP was 2.52.
Work on `CCCCOC` yielded a logP of 1.66.
Compound `COC(=O)c1cc(S(N)(=O)=O)ccc1SCCCO` has a logP of 0.78.

Same assay, conditions: pH 1.0
For `O=C(O)c1ccccc1N1C(=O)CCC1=O`, the logD was 1.55.
`O=C(O)CCCOc1ccc(Cl)cc1Cl` showed a logD of 3.53.
`O=C(O)C1CC1` gave a logD of 0.63.
`O=C(O)c1cc2ccccc2o1` showed a logD of 2.41.
For `O=C(O)Cc1ccc2ccccc2c1`, the logD was 2.81.

Same assay, conditions: pH 3.5
`CC1=C(C(=O)O)N2C(=O)C(NC(=O)C(O)c3ccccc3)C2SC1` (stereo unspecified) showed a logD of 0.46.

Same assay, conditions: pH 4.0
With `O=[N+]([O-])c1cc(C(F)(F)F)cc([N+](=O)[O-])c1NN=CC(F)(F)F` the logD was 2.8.
In the case of `N#Cc1ccc(NN=C(C(F)(F)F)C(F)(F)F)c([N+](=O)[O-])c1`, the logD is reported as 3.4.
With `O=[N+]([O-])c1cc(C(F)(F)F)ccc1NN=C(C(F)(F)F)C(F)(F)F` the logD was 4.8.
`CC(C)=NNc1c([N+](=O)[O-])cc(C(F)(F)F)cc1[N+](=O)[O-]` gave a logD of 3.2.
With `CC(=NNc1c([N+](=O)[O-])cc(C(F)(F)F)cc1[N+](=O)[O-])C(F)(F)F` the logD was 3.

Same assay, conditions: pH 4.2
Compound `NC(=O)c1nc[nH]c1N=NN(CCO)CCO` has a logD of -1.04.

Same assay, conditions: pH 6.3
In the case of `CC(C)N(C)/N=N/c1ccc(C(N)=O)cc1`, the logD is reported as 2.02.

Same assay, conditions: pH 7.0
For `CCCCC#N`, the logD was 1.12.
Work on `Nc1nc2c(ncn2[C@@H]2O[C@H](CO)[C@@H](O)[C@@H]2F)c(=O)[nH]1` yielded a logD of -1.18.
Compound `Cc1cn([C@@H]2O[C@H](CO)[C@@H](O)[C@H]2O)c(=O)nc1N` has a logD of -2.01.
For `CC1(CO)COC(Cn2cncn2)(c2ccc(Cl)cc2Cl)OC1` (stereo unspecified), the logD was 2.1.
Work on `COC(=O)c1ccc(NC(C)=O)cc1` yielded a logD of 1.64.

Same assay, conditions: pH 7.1
`CSCCC(NC(C)=O)C(N)=O` (stereo unspecified) gave a logD of -0.6.

Same assay, conditions: pH 7.4
`c1csc(C23CCCN2CCO3)c1` (stereo unspecified) gave a logD of 1.05.
For `CN(C(F)(F)F)S(=O)(=O)CCCn1ccnc1C=NO`, the logD was 1.77.
With `CC(=O)Oc1cccc2cccnc12` the logD was 2.03.
With `Cn1c(N)nc2ncc(-c3ccccc3)cc21` the logD was 2.23.
With `CC(C)(C)c1ccc(N)cc1` the logD was 2.7.
Compound `O=[N+]([O-])c1cn(Cc2ccccc2)cn1` has a logD of 1.36.
In the case of `CN1C(=O)CN=C(c2ccccc2)c2cc(C#N)ccc21`, the logD is reported as 1.8.
Work on `CN(C)c1ccc2c(c1)C(c1ccccc1Cl)=NCC(=O)N2C` yielded a logD of 2.72.
Work on `Cc1cc(=O)[nH]c(=O)[nH]1` yielded a logD of -0.77.
Work on `Cn1c([N+](=O)[O-])cnc1-c1ccc(N)cc1` yielded a logD of 1.06.
Compound `CCCCCc1ccc(N)cc1` has a logD of 3.39.
`Nc1ccc2c(n1)[nH]c1ccccc12` showed a logD of 2.6.
Compound `Cn1c([N+](=O)[O-])cnc1COc1ccc(Cl)cc1` has a logD of 1.8.
For `O=C1Nc2ccccc2C1=O`, the logD was 0.83.
`ICCI` showed a logD of 2.71.

Same assay, conditions: pH 8.4
Compound `Cn1ccnc1` has a logD of -0.06.

Same assay, conditions: pH 9.8
Work on `c1ccc(C2CN3CCSC3=N2)cc1` (stereo unspecified) yielded a logD of 1.84.

Same assay, conditions: pH 10.6
`C=CCN1CCc2nc(N)sc2CC1` gave a logD of 1.48.

Same assay, conditions: pH 11.0
`C[C@@H]([C@H](O)c1ccccc1)N(C)C` showed a logD of 1.7.

Same assay, conditions: pH 11.3
For `CC(=O)NCCCOc1cccc(CN2CCCCC2)c1`, the logD was 2.15.

Same assay, conditions: pH 13.0
Compound `CCCNC` has a logD of 0.84.
For `NCCCN`, the logD was -1.43.
Compound `COc1ccc(Oc2cnc(N)nc2N)c(OC)c1OC` has a logD of 0.9.
Work on `Nc1ncc(Cc2cccc(Cl)c2Cl)c(N)n1` yielded a logD of 2.81.
`N=C(N)c1ccccc1` showed a logD of 0.65.
With `COc1c(C(C)C)cc(Cc2cnc(N)nc2N)cc1C(C)C` the logD was 3.47.
With `Cc1ccc(Cc2cnc(N)nc2N)c(C)c1N` the logD was 1.12.
In the case of `CNCCO`, the logD is reported as -0.94.
`C1CCC2=NCCCN2CC1` gave a logD of 1.38.
